From patent US20110257211A1, “Small-Molecule Choline Kinase Inhibitors as Anti-Cancer Therapeutics” (ADVANCED CANCER THERAPEUTICS, LLC, priority 2010, published 2011)

Legend:
K562 = assay: Inhibition of cancer cell proliferation, Alamar Blue assay (K562); type: cell-based; conditions: Homo sapiens, Table 2A, Alamar Blue, 72 hours exposure, read-out: IC50s K562
Method: (§1) The ability of the compounds described herein to kill or inhibit the proliferation of cancer cells was measured using the Alamar Blue assay using a 72 hours exposure. Results for different cancer cell lines are shown in, the Table 2 below (hematopoietic cell lines U937 and K562; MDA-MB-231 a breast cancer cell line; and NCI-H82 and Calu-6, two lung cancer cell lines): […]

MDA-MB-231 = assay: Inhibition of cancer cell proliferation, Alamar Blue assay (MDA-MB-231); type: cell-based; conditions: Homo sapiens, Table 2A, Alamar Blue, 72 hours exposure, read-out: IC50s MDA-MB231
Method: as §1

U937 = assay: Inhibition of cancer cell proliferation, Alamar Blue assay (U937); type: cell-based; conditions: Homo sapiens, U-937; Table 2A; Alamar Blue, 72 hours exposure; read-out: IC50s U937
Method: as §1

Calu-6 = assay: Inhibition of cancer cell proliferation, Alamar Blue assay (Calu-6); type: cell-based; conditions: Homo sapiens, Table 2A, Alamar Blue, 72 hours exposure, read-out: IC50s Calu-6
Method: as §1

[1] = Microsomal stability in human liver microsomes; type: in vitro ADME
From the text: Microsomal stability in vitro in different biologic media and species is ascertained when screening compounds to evaluate the rate at which a compound undergoes metabolism.

IC50 (K562)	IC50 (MDA-MB-231)	IC50 (U937)	IC50 (Calu-6)	% Metabolized (mean) [1]	SMILES
28.1 µM	> 100 µM	–	–	–	COc1ccc(-c2nnc(SCC(=O)Nc3c(F)cccc3F)[nH]2)cc1 [ACT-CK-061, N-(2,6-Difluoro-phenyl)-2-[5-(4-methoxy-phenyl)-4H-[1,2,4]triazol-3-ylsulfanyl]-acetamide]
39.5 µM	70.6 µM	–	–	–	CCOc1ccc(-c2nnc(SCC(=O)Nc3ccc(F)cc3F)[nH]2)cc1 [ACT-CK-064, N-(2,4-Difluoro-phenyl)-2-[5-(4-ethoxy-phenyl)-4H-[1,2,4]triazol-3-ylsulfanyl]-acetamide]
11.4 µM	76.2 µM	–	–	–	COc1ccc(-c2nnc(SCC(=O)Nc3cc(F)ccc3C)[nH]2)cc1 [ACT-CK-066, N-(5-Fluoro-2-methyl-phenyl)-2-[5-(4-methoxy-phenyl)-4H-[1,2,4]triazol-3-ylsulfanyl]-acetamide]
1.6 µM	19.2 µM	–	–	–	CCOc1ccc(-c2nnc(SCC(=O)Nc3cc(F)ccc3C)[nH]2)cc1 [ACT-CK-067, 2-[5-(4-Ethoxy-phenyl)-4H-[1,2,4]triazol-3-ylsulfanyl]-N-(5-fluoro-2-methyl-phenyl)-acetamide]
32.1 µM	68.2 µM	–	–	–	COc1ccc(-c2nnc(SCC(=O)Nc3cccc(C)c3C)[nH]2)cc1 [ACT-CK-070, N-(2,3-Dimethyl-phenyl)-2-[5-(4-methoxy-phenyl)-4H-[1,2,4]triazol-3-ylsulfanyl]-acetamide]
0.81 µM	40.2 µM	–	–	–	CCOc1ccc(-c2nnc(SCC(=O)Nc3cc(C)ccc3F)[nH]2)cc1 [ACT-CK-071, 2-[5-(4-Ethoxy-phenyl)-4H-[1,2,4]triazol-3-ylsulfanyl]-N-(2-fluoro-5-methyl-phenyl)-acetamide]
14.6 µM	21.2 µM	–	–	–	CCOc1ccc(-c2nnc(SCC(=O)Nc3cccc(C)c3C)[nH]2)cc1 [ACT-CK-076, N-(2,3-Dimethyl-phenyl)-2-[5-(4-ethoxy-phenyl)-4H-[1,2,4]triazol-3-ylsulfanyl]-acetamide]
4.4 µM	16.3 µM	–	–	–	COc1ccc(-c2nnc(SCC(=O)Nc3cc(C)ccc3F)[nH]2)cc1 [ACT-CK-085, N-(2-Fluoro-5-methyl-phenyl)-2-[5-(4-methoxy-phenyl)-4H-[1,2,4]triazol-3-ylsulfanyl]-acetamide]
8.86 µM	10.6 µM	–	–	–	CCOc1ccc(-c2nnc(SCC(=O)Nc3ccc(OC)cc3C)[nH]2)cc1 [ACT-CK-087, 2-[5-(4-Ethoxy-phenyl)-4H-[1,2,4]triazol-3-ylsulfanyl]-N-(4-methoxy-2-methyl-phenyl)-acetamide]
6.16 µM	15.7 µM	–	–	–	CCOc1ccc(-c2nnc(SCC(=O)Nc3cc(OC)ccc3OC)[nH]2)cc1 [ACT-CK-093, N-(2,5-Dimethoxy-phenyl)-2-[5-(4-ethoxy-phenyl)-4H-[1,2,4]triazol-3-ylsulfanyl]-acetamide]
34 µM	149 µM	–	–	–	COc1ccc(-c2nnc(SCC(=O)Nc3ccc(C)cc3C)[nH]2)cc1 [ACT-CK-096]
3.78 µM	12 µM	–	–	–	CCOc1ccc(-c2nnc(SCC(=O)Nc3ccc(C)cc3C)[nH]2)cc1 [ACT-CK-097, N-(2,4-Dimethyl-phenyl)-2-[5-(4-ethoxy-phenyl)-4H-[1,2,4]triazol-3-ylsulfanyl]-acetamide]
1.4 µM	5.6 µM	–	–	–	CCCOc1ccc(-c2nnc(SCC(=O)Nc3cc(C)cc(C)c3)[nH]2)cc1 [ACT-CK-118, N-(3,5-Dimethyl-phenyl)-2-[5-(4-propoxy-phenyl)-4H-[1,2,4]triazol-3-ylsulfanyl]-acetamide]
28 µM	11 µM	–	–	–	CCCOc1ccc(-c2nnc(SCC(=O)Nc3cc(OC)cc(OC)c3)[nH]2)cc1 [ACT-CK-119, N-(3,5-Dimethoxy-phenyl)-2-[5-(4-propoxy-phenyl)-4H-[1,2,4]triazol-3-ylsulfanyl]-acetamide]
43 µM	9 µM	–	–	–	CCCOc1ccc(-c2nnc(SCC(=O)Nc3cc(C)ccc3F)[nH]2)cc1 [ACT-CK-120, N-(2-Fluoro-5-methyl-phenyl)-2-[5-(4-propoxy-phenyl)-4H-[1,2,4]triazol-3-ylsulfanyl]-acetamide]
23 µM	16 µM	–	–	–	Cc1cc(C)cc(NC(=O)CSc2nnc(-c3cc4ccccc4[nH]3)[nH]2)c1 [ACT-CK-124, N-(3,5-Dimethyl-phenyl)-2-[5-(1H-indol-2-yl)-4H-[1,2,4]triazol-3-ylsulfanyl]-acetamide]
41 µM	79 µM	20.4 µM	41.6 µM	–	COc1cccc(-c2nnc(SCC(=O)Nc3cc(C)cc(C)c3)[nH]2)c1 [ACT-CK-140, N-(3,5-Dimethyl-phenyl)-2-[5-(3-methoxy-phenyl)-4H-[1,2,4]triazol-3-ylsulfanyl]-acetamide]
39 µM	88 µM	49 µM	43 µM	–	CCOc1cccc(-c2nnc(SCC(=O)Nc3cc(C)cc(C)c3)[nH]2)c1 [ACT-CK-141, N-(3,5-Dimethyl-phenyl)-2-[5-(3-ethoxy-phenyl)-4H-[1,2,4]triazol-3-ylsulfanyl]-acetamide]
0.12 µM	50 µM	0.035 µM	0.09 µM	99%	CCOc1ccc(-c2nnc(SCC(=O)Nc3cc(C)cc(C)c3)[nH]2)cc1C [ACT-CK-142, N-(3,5-Dimethyl-phenyl)-2-[5-(4-ethoxy-3-methyl-phenyl)-4H-[1,2,4]triazol-3-ylsulfanyl]-acetamide]
–	–	–	–	34%	CCOc1ccc(-c2nnc(SCC(=O)Nc3cc(C)cc(C)c3)[nH]2)cn1 [ACT-CK-143, N-(3,5-Dimethyl-phenyl)-2-[5-(6-ethoxy-pyridin-3-yl)-4H-[1,2,4]triazol-3-ylsulfanyl]-acetamide]
31.7 µM	91 µM	34.1 µM	54 µM	85%	Cc1cc(C)cc(NC(=O)CSc2nnc(-c3ccc(O)cc3)[nH]2)c1 [ACT-CK-146, N-(3,5-Dimethyl-phenyl)-2-[5-(4-hydroxy-phenyl)-4H-[1,2,4]triazol-3-ylsulfanyl]-acetamide]
0.97 µM	53 µM	0.63 µM	0.74 µM	91%	CCOc1ccc(-c2nnc(SCC(=O)Nc3cc(C)cc(C)n3)[nH]2)cc1 [ACT-CK-147, N-(4,6-Dimethyl-pyridin-2-yl)-2-[5-(4-ethoxy-phenyl)-4H-[1,2,4]triazol-3-ylsulfanyl]-acetamide]
–	–	–	–	91%	CCOc1ccc(-c2nnc(SCC(=O)Nc3cc(C)nc(C)c3)[nH]2)cc1 [ACT-CK-151, N-(2,6-Dimethyl-pyridin-4-yl)-2-[5-(4-ethoxy-phenyl)-4H-[1,2,4]triazol-3-ylsulfanyl]-acetamide]
–	–	–	–	47%	CCOc1ccc(-c2nnc(SCC(=O)Nc3cc(C(F)(F)F)cc(C(F)(F)F)c3)[nH]2)cc1 [ACT-CK-152, N-(3,5-Bis-trifluoromethyl-phenyl)-2-[5-(4-ethoxy-phenyl)-4H-[1,2,4]triazol-3-ylsulfanyl]-acetamide]
–	–	–	–	69%	Cc1cc(C)cc(NC(=O)CSc2nnc(-c3ccc(OCCO)cc3)[nH]2)c1 [ACT-CK-155, N-(3,5-Dimethyl-phenyl)-2-{5-[4-(2-hydroxy-ethoxy)-phenyl]-4H-[1,2,4]triazol-3-ylsulfanyl}-acetamide]
